System: A549 cells
Assay: GSH levels and glutathione- and oxidative stress-related enzyme activities in A549 cells growing in vivo
Set-up: species or system human
Conditions: A549, in vivo Pter, day 35
Procedure: To measure enzyme activity, isolated tumor cells were homogenized in 0.1 M phosphate buffer (pH 7.2) at 4° C. GCL and GSS activities were measured as described previously (Obrador, E. et al. Hepatology 35, 74-81 (2002)). GPX (selenium dependent) activity was measured as described by Flohé and Gunzler (Flohe, L. & Gunzler, W. A. Methods Enzymol 105, 114-121 (1984)) using H2O2 as a substrate. GSR activity was determined as described by Akerboom and Sies (Akerboom, T. P. et al, Bull Eur Physiopathol Respir 17 Suppl, 221-227 (1981)). GGT activity was measured as described previously (Obrador, E. et al. Hepatology 35, 74-81 (2002)). GST activity was measured using an assay kit from Sigma. TXNRD activity, defined by the concentration of sodium-lipoate (disulfide) reduced to dehydrolipoate (dithiol) per milligram protein, was measured as previously described (Javvadi, P. et al. Cancer Res 70, 1941-1950 (2010)). SOD activity was measured as described by Flohé and Otting (Flohe, L. & Otting, F. Methods Enzymol 105, 93-104 (1984).) using 2 mM cyanide in the assay medium to distinguish mangano-type enzyme (SOD2) from the cuprozinc type (SOD1). CAT activity was analyzed as described by Aebi (Aebi, H. Methods Enzymol 105, 121-126 (1984)). NOX activity was measured by chemiluminescence following the methodology of Wind et al. (Wind, S. et al. Comparative pharmacology of chemically distinct NADPH oxidase inhibitors. Br J Pharmacol 161, 885-898 (2010)). Protein concentration was determined with the Pierce BCA protein assay (Fisher Scientific, Waltham, Mass.).
GSH, GSSG, NADP^+ and NADPH Determination.
GSH and GSSG were determined, following procedures previously described (Obrador, E. et al. PLoS One 9, e96466 (2014)), by LC/MS using the same equipment described above for pterostilbene determination. Cell processing was performed according to published methodology, where rapid N-ethylmaleimide derivatization was used to prevent GSH auto-oxidation (Asensi, M. et al. Anal Biochem 217, 323-328 (1994)). NADP^+ and NADPH were quantitated using an assay kit from Sigma (St. Louis, Mo.).
Isolation of Tumor Cells from Mouse Xenografts Using Enzymatic Digestion and a double Ficoll gradient.
To maximize the amount of isolated cells, avoiding the use of RFP-transfected cells and subsequent laser microdissection, an alternative methodology was set up. To maximize cell yield and viability the following combination of enzymes was used: collagenase III (200 U/ml; Sigma-Aldrich), DNase I (200 U/ml; Sigma-Aldrich) and trypsin (5 mg/ml; Invitrogen), and a non-enzymatic dissociation buffer (NEDB, Invitrogen). Briefly, mice were killed, and tumors were removed (avoiding skin, muscle and fat) into cold culture media and processed immediately. The tumors were minced into 1-3 mm fragments, which were then incubated with the dissociation solution (see above) for 30 min at 37° C. The tumor fragments were mixed up and down every 10 min using a […] micropipette with a tip cut to a diameter adapted to tissue fragment size. After each incubation period, the fragments were filtered through a […] nylon mesh cell strainer (BD Biosciences, San Diego, Calif., USA). The released cells were centrifuged at 1200 r.p.m. for 2 min and stored in cold CO2-independent medium with 30% FCS at […]. Fresh dissociation solution was added to the remaining tissue fragments for 30 min. Dissociation was stopped when no additional cells were released. The fragments were pushed through a sieve and all cells from all incubation periods were pooled and counted.
The dissociated cells were layered onto a double Ficoll gradient (Histopaque; Sigma-Aldrich; densities 1.077 and 1.119) and spun at 700 g for 30 min at room temperature. Cells removed from both interfaces were pooled and washed two times in CO2-independent medium and stored at 4° C. Debris and red blood cell elimination was improved with the dual-density gradient. […]

## COc1cc(/C=C/c2ccc(O)cc2)cc(OC)c1 [Pter, trans-3,5-dimethoxy-4′-hydroxystilbene]
  CAT: 0.3 ± 0.01 mU/10^6 cells
  GCL: 39 ± 16 mU/10^6 cells
  GSH: 4.7 ± 1.5 nmol/10^6 cells
  GSS: 3.9 ± 1.0 mU/10^6 cells
  GSSG: 0.2 ± 0.07 nmol/10^6 cells
  SOD1: 0.5 ± 0.1 U/10^6 cells
  SOD2: 0.04 ± 0.01 U/10^6 cells

Source: patent publication US11179348B2, “Combination comprising pterostilbene for the treatment of cancer” (FUNDACIÓN UNIVERSIDAD CATÓLICA DE VALENCIA SAN VICENTE …, priority 2015, dated 2021)
